Data published in patent US9516824B2, “Method for modulating the number of archesporial cells in a developing anther” (The Board of Trustees of the Leland Stanford Junior …, priority 2012, dated 2016).
“Also recorded” adds a separate entry of the source.

Key:
maize anthers [1] = test: Oxygen tension / ROS manipulation of the tassel airspace (gas by hose or needle, chemical injection): locule cell counts and SPL/EN bilayer progression by confocal imaging; conditions: for AR specification / AR cell counts compared to puncture controls: injected into tassel airspace: 1 mM H2O2, 10 mM KI, 200 μM PTIO, 48 h prior to dissection; for AR specification / AR cell counts compared to puncture controls / somatic bilayer formation / development / AR morphological differentiation: 100 μM L-NNA, 20 μM SNP; for somatic bilayer formation / development: injected: 1 mM H2O2, 200 μM PTIO, compared to puncture control and untreated; for peripheral counts compared to needle puncture control / total L2 counts compared to needle puncture control: injection of 1 mL of 1 mM H2O2 or 10 mM KI; for AR morphological differentiation: injected: 200 μM PTIO; for SPL/EN bilayer (somatic niche) formation: gas treatment by hose or needle, 24 or 48 h; for peripheral somatic cell counts: late stages after 48 hour gas exposure
Procedure: Fertile W23 inbred anthers were stained with propidium iodide and imaged in Z-stack using a Leica SP5 confocal microscope (6). The ontogeny of locular cell types was cataloged over ˜2.5 days as anthers grew in length from 100 to 300 μm. […] The morphological characteristics of pre-meiotic cells are well established (18).
N2 or O2 gas was administered through hoses threaded into the leaf whorl (FIG. 15B). […] Alternatively, nitrogen, oxygen, or compressed air (20% O2) were administered by connecting gas lines to a needle inserted into the tassel airspace (FIGS. 15, C and D). In all experiments, a low flow of gas was administered over a 24 (A619) or 48 hour period (W23). Total locule cells (FIGS. 2, B, H, and M), peripheral somatic cells (FIGS. 2, C, I, and N), and central AR cells (FIGS. 2, D, J, and O) were quantified.
Confocal imaging, and EdU and PI staining were performed as described previously (6). Oxygen probe was an Oxygraph Tx3 (NTH-Pst1-L5-NS40-0.8-YOP) obtained from Presens (Regensburg, Germany). All chemicals were obtained from Sigma Chemical Co. (St. Louis, Mo.) and dissolved in water at the indicated molarities and injected using a 26 gauge needle into the airspace surrounding the immature tassel.

maize anthers [2] = test: Ectopic archesporial (AR) cell formation after reducing or oxidizing treatments; assay type: in vivo; conditions: for ectopic AR location by CT: internal (near or in the CT and VT); for # having ectopic AR: number of anthers; for ectopic AR location by EPI: superficial (near or on the EPI)
[3] = fertile genotype, listed as N2 (direct)
[4] = fertile genotype, listed as N2 (hose)
[5] = fertile, needle trial, 48 h gas treatment
[6] = fertile genotype, listed as O2 (direct)
[7] = fertile genotype, listed as O2 (hose)

Structure (SMILES) | ectopic AR location by CT (maize anthers [2]; fertile genotype) | # having ectopic AR (maize anthers [2]; fertile genotype) | ectopic AR location by EPI (maize anthers [2]; fertile genotype) | ectopic AR location by CT (maize anthers [2]; mac1 genotype) | # having ectopic AR (maize anthers [2]; mac1 genotype) | ectopic AR location by EPI (maize anthers [2]; mac1 genotype) | AR specification in msca1 anthers (maize anthers [2]) | ectopic AR location by CT (maize anthers [2]; msca1 genotype) | # having ectopic AR (maize anthers [2]; msca1 genotype) | ectopic AR location by EPI (maize anthers [2]; msca1 genotype) | AR count (treatment effect) (maize anthers [1]; fertile genotype) | SPL/EN timing (treatment effect) (maize anthers [1]; fertile genotype) | AR specification / AR cell counts compared to puncture controls (maize anthers [1]) | somatic bilayer formation / development (maize anthers [1]) | AR count (treatment effect) (maize anthers [1]; mac1 genotype) | AR per event (average count of ectopic AR cells in each instance) (maize anthers [2]; fertile genotype) | AR count (treatment effect) (maize anthers [1]; msca1 genotype) | niche - forming (periclinal divisions generating EN/SPL-like bilayer around ectopic AR) (maize anthers [2]; fertile genotype) | further results
c1ccc2c(c1)[I+]c1ccccc1-2 [DPI, Diphenylene iodonium] |  |  |  |  |  |  |  |  |  |  |  |  |  |  |  |  |  |  | effect on tassel tissues (maize anthers [1]; injected into tassel airspace): complete degeneration of the tassel tissues
OO [H2O2, hydrogen peroxide] | 0 | 0 | 0 | 0 | 0 | 0 | lacked AR | 0 | 0 | 0 | fewer | delayed | lowered AR cell counts | inhibited subsequent somatic bilayer formation | extra |  |  |  | AR per event (average count of ectopic AR cells in each instance) (maize anthers [2]; msca1 genotype): 2; niche - forming (periclinal divisions generating EN/SPL-like bilayer around ectopic AR) (maize anthers [2]; msca1 genotype): yes; peripheral counts compared to needle puncture control (maize anthers [1]): greatly reduced; total L2 counts compared to needle puncture control (maize anthers [1]): greatly reduced
[I-].[K+] [KI] | 0 | 2 | 2 |  | 0 | 0 | caused AR specification |  | 6 | 5 | extra | early | dramatically promoted AR specification |  | extra | 7 | extra |  | AR per event (average count of ectopic AR cells in each instance) (maize anthers [2]; msca1 genotype): 3; percent of treated anthers having AR cells (maize anthers [2]; msca1 mutant, 20 μM SNP or KI injected): 9.5%; AR:total L2 ratios (maize anthers [1]; 10 mM KI injected): increased AR:total L2 ratios; peripheral counts compared to needle puncture control (maize anthers [1]): did not alter; total L2 counts compared to needle puncture control (maize anthers [1]): did not alter
N=C(NCCC[C@H](N)C(=O)O)N[N+](=O)[O-] [L-NNA, N^G-nitro-L-Arginine] | 1 | 1 | 0 | 0 | 0 | 0 | lacked AR | 0 | 0 | 0 | fewer | delayed | slightly repressed; also recorded: slightly suppressed AR counts | dramatically delayed | extra | 2 |  | yes | AR morphological differentiation (maize anthers [1]): slowed the morphological differentiation of central AR cells; also recorded: delayed AR morphological differentiation
N#N [N2, nitrogen] | 0 |  |  | 2 | 7 | 5 |  | 0 | 0 | 0 | extra | early |  |  | extra | 5 | none |  | # having ectopic AR (maize anthers [2]; [3]): 4; # having ectopic AR (maize anthers [2]; [4]): 0; ectopic AR location by EPI (maize anthers [2]; [3]): 4; ectopic AR location by EPI (maize anthers [2]; [4]): 0; ectopic AR formation (maize anthers [2]; hose protocol): did not cause ectopic AR in any anthers; AR per event (average count of ectopic AR cells in each instance) (maize anthers [2]; mac1 genotype): 3; AR specification and AR cell counts compared to untreated fertile anthers (maize anthers [1]; fertile, all three gas protocols (hose 48 h W23, hose 24 h A619, needle)): early specification and excess AR cells; AR:total L2 ratio (maize anthers [1]; fertile, gas treatment): elevated ratios; SPL/EN bilayer (somatic niche) formation (maize anthers [1]; fertile): formed early; also recorded: precocious bilayer formation; central AR as fraction of total L2 cells (maize anthers [1]; fertile, gas treatment, early stages): up to 25%; peripheral somatic cell counts (maize anthers [1]; fertile): increased peripheral somatic cell counts; AR counts (maize anthers [1]; [5]): Excess presumptive AR cells
O=O [O2, oxygen] |  |  |  | 0 | 0 | 0 |  | 0 | 0 | 0 |  |  |  |  | extra | 3.7 | none | ~half | ectopic AR location by CT (maize anthers [2]; [6]): 12; ectopic AR location by CT (maize anthers [2]; [7]): 0; # having ectopic AR (maize anthers [2]; [6]): 18; # having ectopic AR (maize anthers [2]; [7]): 0; ectopic AR location by EPI (maize anthers [2]; [6]): 6; ectopic AR location by EPI (maize anthers [2]; [7]): 0; AR count (treatment effect) (maize anthers [1]; [6]): extra; SPL/EN timing (treatment effect) (maize anthers [1]; [6]): delayed; AR count (treatment effect) (maize anthers [1]; [7]): fewer; SPL/EN timing (treatment effect) (maize anthers [1]; [7]): late; SPL/EN bilayer (somatic niche) formation (maize anthers [1]; fertile): delayed; AR specification (maize anthers [1]; fertile, hose gas treatment): repressed AR specification; AR counts (maize anthers [1]; fertile, hose, 24 hour exposure): significantly fewer AR than either untreated or N2; central AR counts (maize anthers [1]; fertile, hose, 48 hour treatment): far lower than N2; peripheral somatic cell counts (maize anthers [1]; fertile): increased peripheral somatic cells in the late stages; AR counts (maize anthers [1]; [5]): elevated in the needle trial, less than compressed air and dramatically less than nitrogen
CC1(C)N([O])C(c2ccccc2)=[N+]([O-])C1(C)C [PTIO, 2-Phenyl-4,4,5,5-tetramethylimidazoline-1-oxyl-3-oxide] | 3 | 4 | 1 | 0 | 0 | 0 | lacked AR | 0 | 0 | 0 | fewer | delayed | slightly repressed; also recorded: slightly suppressed AR counts | dramatically delayed | extra | 5 |  | yes | AR morphological differentiation (maize anthers [1]): slowed the morphological differentiation of central AR cells; also recorded: delayed AR morphological differentiation
